Where a SMILES comes first, the peptide text is derived from it. [ ]: non-standard residue; d: D form. The star is where a group is joined. Phe(4-Br) = N[C@@H](Cc1ccc(Br)cc1)C(=O)O; Palmitoyl = CCCCCCCCCCCCCCCC(=O)*; NMeL = CN[C@@H](CC(C)C)C(=O)O; Nle = CCCC[C@H](N)C(=O)O; Aib = CC(C)(N)C(=O)O
Assays:
[1] = target: T1, recombinant human APJ-Ga16 receptor (Homo sapiens, UniProt P35414); experiment: Ca2+ mobilization assay (FLIPR, Chem-5-APJ cells); format: cell-based; conditions: among peptides 56-59
T1 construct: host or cells: Chem-5-APJ cells
T1 sequence (P35414 1-380): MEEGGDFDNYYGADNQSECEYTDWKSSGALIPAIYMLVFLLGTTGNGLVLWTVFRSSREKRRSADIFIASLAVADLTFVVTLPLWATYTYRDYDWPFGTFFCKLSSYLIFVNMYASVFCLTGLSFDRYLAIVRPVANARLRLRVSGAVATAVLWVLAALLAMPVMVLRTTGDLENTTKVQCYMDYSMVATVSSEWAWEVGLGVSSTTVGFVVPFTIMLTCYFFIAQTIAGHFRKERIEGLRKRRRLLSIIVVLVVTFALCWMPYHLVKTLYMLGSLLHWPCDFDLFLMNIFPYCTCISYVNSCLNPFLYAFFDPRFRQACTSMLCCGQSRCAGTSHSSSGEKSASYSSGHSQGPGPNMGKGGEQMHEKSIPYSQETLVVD
Description: To study the extent to which the newly derived peptides trigger APJ-receptor activation, a fluorescence coupled calcium release assay including a recombinant human APJ-Ga16 receptor cell line was used.
Chem-5-APJ cells (Millipore, USA) were seeded (30 000 cells/well) into Nunclon Delta Surface 96-well, clear-bottom microtitre plates (Thermo Scientific, Denmark) 24 hours prior to assay. Cells were loaded for 1 hour with FLIPR Calcium 6-QF fluorescent indicator dye (Molecular Devices, USA) in assay buffer [Hanks balanced salt solution (HBSS), 20 mM HEPES, 0.2% DMSO, 2.5 mM probenecid, pH 7.6], washed three times with assay buffer, then returned to the incubator for 10 min before assay on a fluorimetric imaging plate reader (FLIPR; Molecular Devices, Sunnyvale, Calif., USA). Maximum change in fluorescence over baseline was used to determine agonist response. Dose—response curve data were fitted to a four-parameter logistic equation using PRISM (Graph Pad, USA) from which pEC50 values were calculated. FIGS. 14A-G show the concentration response curves of apelin peptides.

[2] = test system: anesthetized mice; experiment: Blood pressure assay in anesthetized mice; format: in vivo; conditions: 1.4 μM/kg body weight injected
In short: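 Mice were anaesthetized with 1.5% isoflurane/oxygen and kept at 36 °C. Peptide (1.4 μM/kg body weight) or saline was injected via the right jugular vein. Arterial pressure and heart rate were recorded continuously through a catheter in the aorta via the right carotid artery over 60 min and reported as SBP, DBP, MABP and HR.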

- Ca2+ mobilization (in words) [1]: lowest Ca^2+ mobilization
Compound: CCCCCCCCCCCCCCCC(=O)N[C@@H](CCCCN)C(=O)N[C@@H](Cc1ccccc1)C(=O)N[C@@H](CCCNC(=N)N)C(=O)N[C@@H](CCCNC(=N)N)C(=O)N[C@@H](CCC(N)=O)C(=O)N[C@@H](CCCNC(=N)N)C(=O)N1CCC[C@H]1C(=O)N[C@@H](CCCNC(=N)N)C(=O)N(C)[C@@H](CC(C)C)C(=O)N[C@@H](CO)C(=O)N[C@@H](Cc1c[nH]cn1)C(=O)N[C@@H](CCCCN)C(=O)NCC(=O)N1CCC[C@H]1C(=O)N[C@@H](CCCC)C(=O)NC(C)(C)C(=O)N[C@@H](Cc1ccc(Br)cc1)C(=O)O [Peptide 58] (Palmitoyl-KFRRQRPR[NMeL]SHKGP[Nle][Aib][Phe(4-Br)]-OH; C-terminus assumed)
- effect on heart rate (HR) [2]: heart rate increasing effect is restored

Source: patent US10640545B2 (THE GOVERNORS OF THE UNIVERSITY OF ALBERTA, priority 2017, dated 2020)
